Experimental data taken from US7994185B2, “Benzene sulfonamide thiazole and oxazole compounds” (Glaxo Smith Kline LLC, priority 2008, dated 2011).
Like-named read-outs stand apart in the source and are kept apart here.

What was measured:
[1] = test system: Human colon tumor cells (Colo205); assay: Cell growth inhibition assay (CellTiter-Glo), Colo205; assay type: cell-based
Outline: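 Growth is estimated from total cellular ATP measured by CellTiter-Glo luminescence after a 3-day compound exposure at 37 °C. Compounds are tested as 1:3 dilution series in 0.2% final DMSO, with inhibition expressed relative to vehicle-treated wells.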

[2] = test system: Human melanoma cancer cells (SK-MEL-28); assay: Cell growth inhibition assay (CellTiter-Glo), SK-MEL-28; assay type: cell-based
[3] = target: T1, BRAFV600E full-length (amino acids 2-766) (Homo sapiens, UniProt P15056, V600E); assay: B-Raf Accelerated MEK ATPase assay (BRAMA); assay type: biochemical; conditions: categorized
T1 construct: His6-tagged BRAFV600E full-length (amino acids 2-766); His6; made in house; host or cells: baculovirus expression system (insect cells)
Outline: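 Coupled-enzyme readout: ADP generated by MEK-mediated ATP hydrolysis, uncoupled from ERK phosphorylation, is linked to NADH oxidation through pyruvate kinase and lactate dehydrogenase.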

[4] = COLO 205, 72 h, Table 2a, 3 days incubation, read-out: Activity in Colo205 Tumor Cells
[5] = COLO 205, Table 2b, later runs, average for the one or more runs, categorized, read-out: IC50 for Colo205
[6] = SK-MEL-28, 72 h, Table 3a, 3 days incubation, read-out: Activity in SK-MEL-28 Tumor Cells
[7] = SK-MEL-28, Table 3b, later runs, average for the one or more runs, categorized, read-out: IC50 for SK-MEL-28
[8] = B-Raf Activity, Table 1a, highest pIC50 for the one or more runs
[9] = Table 1b, later runs, average pIC50 for the one or more runs, read-out: B-Raf pIC50 (converted)
[10] = B-Raf pIC50, Table 1b, later runs, average pIC50 for the one or more runs

T1 sequence (P15056 2-766 V600E): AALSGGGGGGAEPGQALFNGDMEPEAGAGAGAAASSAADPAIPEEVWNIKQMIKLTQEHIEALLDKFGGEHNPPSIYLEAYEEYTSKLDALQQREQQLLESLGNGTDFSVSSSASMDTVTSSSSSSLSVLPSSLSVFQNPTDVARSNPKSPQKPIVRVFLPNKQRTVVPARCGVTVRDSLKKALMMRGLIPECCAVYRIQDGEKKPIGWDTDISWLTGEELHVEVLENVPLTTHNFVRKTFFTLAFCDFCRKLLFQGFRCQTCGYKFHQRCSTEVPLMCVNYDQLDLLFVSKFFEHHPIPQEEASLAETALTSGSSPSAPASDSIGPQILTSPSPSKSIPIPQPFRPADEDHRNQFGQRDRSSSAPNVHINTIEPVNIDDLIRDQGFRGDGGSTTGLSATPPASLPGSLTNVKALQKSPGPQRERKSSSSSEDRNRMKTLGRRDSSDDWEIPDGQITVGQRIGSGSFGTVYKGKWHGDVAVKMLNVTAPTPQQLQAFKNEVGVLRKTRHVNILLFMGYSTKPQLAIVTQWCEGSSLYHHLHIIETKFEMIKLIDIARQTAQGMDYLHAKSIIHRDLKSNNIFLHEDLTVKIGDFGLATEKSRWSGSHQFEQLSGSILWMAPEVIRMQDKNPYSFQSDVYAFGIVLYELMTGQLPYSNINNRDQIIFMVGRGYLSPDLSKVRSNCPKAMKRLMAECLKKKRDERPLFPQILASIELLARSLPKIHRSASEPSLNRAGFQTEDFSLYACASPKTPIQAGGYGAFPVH

Row | Structure (SMILES) | IC50 [1, 4] [nM] | IC50 [1, 5] [nM] | IC50 [2, 6] [nM] | IC50 [2, 7] [nM] | IC50 [3, 8] [nM] | IC50 [3, 9] [nM] | IC50 [3, 10] [nM]
1 | Nc1nccc(-c2sc(N3CCOCC3)nc2-c2c(F)ccc(NS(=O)(=O)c3c(F)cccc3F)c2F)n1 [Example 106, N-{3-[5-(2-Amino-4-pyrimidinyl)-2-(4-morpholinyl)-1,3-thiazol-4-yl]-2,4-difluorophenyl}-2,6-difluorobenzenesulfonamide] | 100 to 1000 | 100 to 1000 | 100 to 1000 | 100 to 1000 | < 100 | 3.16 to 31.6 | 
2 | CC(C)(C)c1nc(-c2c(F)ccc(NS(=O)(=O)c3c(F)cccc3F)c2F)c(-c2ccnc(N)n2)s1 [Example 107, N-{3-[5-(2-amino-4-pyrimidinyl)-2-(1,1-dimethylethyl)-1,3-thiazol-4-yl]-2,4-difluorophenyl}-2,6-difluorobenzenesulfonamide] | < 100 | < 100 | < 100 | < 100 | < 100 |  | ≤ 3.16
3 | Nc1nccc(-c2oc(N3CCCC3)nc2-c2cccc(NS(=O)(=O)c3c(F)cccc3F)c2)n1 [Example 110, N-{3-[5-(2-Amino-4-pyrimidinyl)-2-(1-pyrrolidinyl)-1,3-oxazol-4-yl]phenyl}-2,6-difluorobenzenesulfonamide] |  | 1000 to 10000 |  | 1000 to 10000 | 100 to 1000 |  | 31.6 to 1000
4 | CC(C)CNc1nccc(-c2oc(N3CCCC3)nc2-c2cccc(NS(=O)(=O)c3c(F)cccc3F)c2)n1 [Example 111, 2,6-Difluoro-N-{3-[5-{2-[(2-methylpropyl)amino]-4-pyrimidinyl}-2-(1-pyrrolidinyl)-1,3-oxazol-4-yl]phenyl}benzenesulfonamide] |  | 1000 to 10000 |  | 1000 to 10000 | < 100 |  | 31.6 to 1000
5 | CC(C)CNc1nccc(-c2sc(N(C)C)nc2-c2cccc(NS(=O)(=O)c3c(F)cccc3F)c2)n1 [Example 113, N-[3-(2-(Dimethylamino)-5-{2-[(2-methylpropyl)amino]-4-pyrimidinyl}-1,3-thiazol-4-yl)phenyl]-2,6-difluorobenzenesulfonamide] |  | 100 to 1000 |  | 100 to 1000 | < 100 |  | 31.6 to 1000
6 | CC(C)CNc1nccc(-c2scnc2-c2cccc(NS(=O)(=O)c3c(F)cccc3F)c2)n1 [Example 115, 2,6-Difluoro-N-[3-(5-{2-[(2-methylpropyl)amino]-4-pyrimidinyl}-1,3-thiazol-4-yl)phenyl]benzenesulfonamide] | > 1000 | 1000 to 10000 | > 1000 | 1000 to 10000 | > 1000 | 3.16 to 31.6 | 
7 | Nc1nccc(-c2sc(C3CCC3)nc2-c2cccc(NS(=O)(=O)c3cc(F)ccc3F)c2F)n1 [Example 117] | < 100 | < 100 | < 100 | < 100 | < 100 |  | ≤ 3.16
8 | Nc1nccc(-c2sc(C3CCC3)nc2-c2cccc(NS(=O)(=O)c3c(F)cccc3F)c2F)n1 [Example 118] | 100 to 1000 | 100 to 1000 | 100 to 1000 | 100 to 1000 | < 100 |  | ≤ 3.16
9 | CNc1nccc(-c2sc(C(C)C)nc2-c2ccc(F)c(NS(=O)(=O)c3c(F)cccc3F)c2)n1 [Example 119] | > 1000 |  | > 1000 | 1000 to 10000 | 100 to 1000 |  | 31.6 to 1000
10 | CCCNc1nccc(-c2sc(C(C)C)nc2-c2ccc(F)c(NS(=O)(=O)c3cc(F)ccc3F)c2)n1 [Example 120] | 100 to 1000 | 100 to 1000 | 100 to 1000 | 100 to 1000 | < 100 | 3.16 to 31.6 | 
11 | CC(C)CNc1nccc(-c2sc(C(C)C)nc2-c2ccc(F)c(NS(=O)(=O)c3cc(F)ccc3F)c2)n1 [Example 121] | 100 to 1000 | 100 to 1000 | 100 to 1000 | 100 to 1000 | < 100 | 3.16 to 31.6 | 
12 | CC(C)c1nc(-c2ccc(F)c(NS(=O)(=O)c3cc(F)ccc3F)c2)c(-c2ccnc(NC3CC3)n2)s1 [Example 122] | > 1000 | 1000 to 10000 | > 1000 | 1000 to 10000 | < 100 |  | 31.6 to 1000
13 | CC(C)c1nc(-c2ccc(F)c(NS(=O)(=O)c3cc(F)ccc3F)c2)c(-c2ccnc(NC3CCN(C)CC3)n2)s1 [Example 123] | 100 to 1000 | 100 to 1000 | > 1000 | 1000 to 10000 | < 100 |  | 31.6 to 1000
14 | CC(C)c1nc(-c2ccc(F)c(NS(=O)(=O)c3cc(F)ccc3F)c2)c(-c2ccnc(NC3CCN(C(=O)OC(C)(C)C)CC3)n2)s1 [Example 124] | 100 to 1000 | 100 to 1000 | 100 to 1000 | 100 to 1000 | < 100 |  | 31.6 to 1000
15 | CC(C)c1nc(-c2ccc(F)c(NS(=O)(=O)c3cc(F)ccc3F)c2)c(-c2ccnc(NC3CCNCC3)n2)s1 [Example 125] | 100 to 1000 | 100 to 1000 | 100 to 1000 | 100 to 1000 | < 100 | 3.16 to 31.6 | 
16 | CC(C)c1nc(-c2ccc(F)c(NS(=O)(=O)c3cc(F)ccc3F)c2)c(-c2ccnc(NC3CCN(CCS(C)(=O)=O)CC3)n2)s1 [Example 126] | 100 to 1000 | 100 to 1000 | 100 to 1000 | 100 to 1000 | < 100 |  | 31.6 to 1000
17 | CC(C)c1nc(-c2ccc(F)c(NS(=O)(=O)c3cc(F)ccc3F)c2)c(-c2ccnc(NCC3CCN(C(=O)OC(C)(C)C)CC3)n2)s1 [Example 127] | > 1000 | 1000 to 10000 | > 1000 | 1000 to 10000 | < 100 |  | 31.6 to 1000
18 | CC(C)c1nc(-c2ccc(F)c(NS(=O)(=O)c3cc(F)ccc3F)c2)c(-c2ccnc(NCC3CCNCC3)n2)s1 [Example 128] | > 1000 | 1000 to 10000 | > 1000 |  | < 100 | 3.16 to 31.6 | 
19 | CC(C)c1nc(-c2ccc(F)c(NS(=O)(=O)c3cc(F)ccc3F)c2)c(-c2ccnc(NCC3CCN(S(C)(=O)=O)CC3)n2)s1 [Example 129] | 100 to 1000 | 100 to 1000 | 100 to 1000 | 100 to 1000 | < 100 | 3.16 to 31.6 | 
20 | CC(C)(C)c1nc(-c2cccc(NS(=O)(=O)c3cc(F)ccc3F)c2F)c(-c2ccnc(NC3CCN(S(C)(=O)=O)CC3)n2)s1 [Example 130] | < 100 | < 100 | < 100 | < 100 | < 100 |  | ≤ 3.16
21 | CC(C)c1nc(-c2ccc(F)c(NS(=O)(=O)c3cc(F)ccc3F)c2)c(-c2ccnc(NCCN3CCCCC3)n2)s1 [Example 131] | > 1000 |  | > 1000 | 1000 to 10000 | < 100 |  | 31.6 to 1000
22 | CC(C)c1nc(-c2ccc(F)c(NS(=O)(=O)c3cc(F)ccc3F)c2)c(-c2ccnc(NC3CC(C)(C)N(C)C(C)(C)C3)n2)s1 [Example 132] | 100 to 1000 | 100 to 1000 | 100 to 1000 | 100 to 1000 | < 100 |  | ≤ 3.16
23 | CC(C)c1nc(-c2ccc(F)c(NS(=O)(=O)c3cc(F)ccc3F)c2)c(-c2ccnc(N[C@H]3CCCN(C(=O)OC(C)(C)C)C3)n2)s1 [Example 133] | > 1000 | 1000 to 10000 | > 1000 | 1000 to 10000 | 100 to 1000 |  | 31.6 to 1000
